Measured values taken from patent publication US20140179681A1, “METHODS AND COMPOSITIONS OF TARGETED DRUG DEVELOPMENT” (priority 2010, published 2014).
pIC50: −log10 of the molar value. Where a name gives a salt, the structure may show the parent alone. Read-outs that look alike come from different tables or passages of the source.

Assays:
EGFR = biological target: T1, EGFR (Homo sapiens, UniProt P00533); experiment: EGFR in-cell Western (ICW) screening protocol (EGFR inhibition assay); format: cell-based; set-up: ICW 1 / ICW 2 / ICW Avg: unit not given here; conditions: ICW assay; for ICW Avg: average of runs 1 and 2; for ICW 1: run 1; for ICW 2: run 2
T1 construct: host or cells: A431
T1 sequence (P00533 25-1210): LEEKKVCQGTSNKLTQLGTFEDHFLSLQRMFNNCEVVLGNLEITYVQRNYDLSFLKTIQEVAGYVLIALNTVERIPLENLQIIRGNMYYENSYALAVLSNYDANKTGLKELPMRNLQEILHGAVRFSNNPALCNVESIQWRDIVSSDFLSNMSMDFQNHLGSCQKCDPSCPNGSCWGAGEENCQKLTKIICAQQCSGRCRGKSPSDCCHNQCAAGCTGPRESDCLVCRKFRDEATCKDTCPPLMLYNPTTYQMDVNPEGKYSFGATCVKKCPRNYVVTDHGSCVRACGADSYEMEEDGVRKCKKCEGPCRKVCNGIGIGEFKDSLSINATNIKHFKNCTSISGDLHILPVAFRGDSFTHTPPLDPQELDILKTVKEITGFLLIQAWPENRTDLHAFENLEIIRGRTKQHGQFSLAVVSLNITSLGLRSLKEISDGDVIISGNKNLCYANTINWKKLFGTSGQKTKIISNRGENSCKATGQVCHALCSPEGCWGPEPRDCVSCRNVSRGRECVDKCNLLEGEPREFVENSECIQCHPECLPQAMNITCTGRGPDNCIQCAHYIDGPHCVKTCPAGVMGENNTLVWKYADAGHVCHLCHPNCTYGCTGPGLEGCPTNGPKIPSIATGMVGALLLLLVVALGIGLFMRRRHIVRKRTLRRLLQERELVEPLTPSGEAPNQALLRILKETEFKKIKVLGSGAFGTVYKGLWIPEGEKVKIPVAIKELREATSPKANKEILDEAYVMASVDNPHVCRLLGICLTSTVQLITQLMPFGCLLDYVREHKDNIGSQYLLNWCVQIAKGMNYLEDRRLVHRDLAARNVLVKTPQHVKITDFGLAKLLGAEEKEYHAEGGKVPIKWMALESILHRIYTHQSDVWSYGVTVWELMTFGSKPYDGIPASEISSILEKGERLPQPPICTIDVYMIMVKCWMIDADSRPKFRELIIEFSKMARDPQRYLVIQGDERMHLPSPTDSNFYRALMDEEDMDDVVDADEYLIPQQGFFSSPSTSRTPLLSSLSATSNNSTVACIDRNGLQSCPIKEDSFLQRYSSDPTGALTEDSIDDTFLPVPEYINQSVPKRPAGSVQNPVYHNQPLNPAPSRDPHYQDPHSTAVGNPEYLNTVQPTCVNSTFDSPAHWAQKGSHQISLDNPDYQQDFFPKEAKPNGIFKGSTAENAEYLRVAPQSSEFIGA
Outline: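 Serum-starved A431 cells (2 h) were pretreated with compound for 4 h at 37° C, then stimulated with EGF (10 ng/ml final, or 6.6 or 12.5 ng/ml in some runs) for 10 min. After formaldehyde fixation, phospho-EGFR (Tyr1173, or Tyr1045 in some runs) and total EGFR were detected by in-cell Western immunostaining.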

MDBK line = experiment: MTT Cell Proliferation Assay, MDBK cells; format: cell-based, bovine; conditions: MDBK cells; for pIC50: Bos taurus, MDBK
Text: (§1) The following example describes the MTT Cell Proliferation Assay.
(§2) The MTT Cell Proliferation Assay is a colorimetric assay system that measures the reduction of the tetrazolium salt MTT (3-(4,5-dimethylthiazol-2-yl)-2,5-diphenyltetrazolium bromide) into insoluble formazan crystals, produced by the mitochondria of viable cells. […] The color can then be quantified by spectrophotometric means. Among the applications for the method are drug sensitivity, cytotoxicity, response to growth factors, and cell activation. The reduction of tetrazolium salts is now recognized as a safe, accurate alternative to radiometric testing.
(§3) Two replicates on each cell plate and 2 duplicate plates gave 4 individual replicates of each concentration, in each cell line. Concentrations were diluted in 100% DMSO from 25 mM stocks.
(§4) Twelve 96 well plates of each cell line were plated. Plating was done by dislodging cells as in passage protocol, counting on a hemocytometer, re-suspending in standard growth media, and plating using a multichannel pippetor.
(§5) 16 μl of 25 mM stock+34 μl DMSO=8 mM starting concentrations, and serial diluted as with test compounds in same plate. […] Two replicates of each concentrations was run on each cell plate. All compound addition and cell treatments were done using aseptic technique under a laminar flow aseptic hood.
(§6) Control: 0.5% DMSO in treatment media was used as the control.
(§7) MTT dye (Thiazolyl Blue Tetrazolium Bromide, Sigma cat #M5655) stock was prepared in bulk and stored at 4° C. for use: 5 mgs/ml sterile PDS, shielded from light. 4 ul of this stock per 100 uls treatment media per well was used.
(§8) Plates were incubated overnight prior to treatment, with treatment day=Day 0. Compound treatments were prepared prior to washing cells to minimize time cells were dry at room temperature after final aspiration. Compounds were diluted in 100% DMSO in 96 well polypropylene plates: 40 μl 25 mM stock+10 μl DMSO=20 mM; 20 μl of 20 mM+30 μl DMSO=8 mM; 20 μl of 8 mM+30 μl DMSO=3.2 mM; 20 μl of 3.2 mM+30 μl DMSO=1.3 mM; 20 μl of 1.3 mM+30 μl DMSO=0.51 mM.
(§9) 5.0 μl/ml were added to treatment media, in sterile, 2.2 ml deep well plates=0.5% dmso final. Ten μl of each dmso concentration was added to 2.0 ml of treatment media and then mixed using a 1200 μl multichannel pipettor. Cell plates were treated from the deep well plates. Treatment media was standard growth media containing 0.5% FBS and standard additions. This reduced FBS concentration allowed for a slower growth rate in cells.
(§10) Media was aspirated from cell plates, and washed with 200 μl/well sterile PBS. Aspirated PBS wash, and cell plates were treated with 200 μl of compound/treatment media per well, and incubated at 37° C., 5% CO2 for 3 days.
(§11) Prior to harvesting, visual observations were made under an inverted microscope. Plates were harvested by: aspirating the growth media; adding back MTT dye/100 μl treatment media; and incubating plates at 37° C. for 1 hour. MTT dye was aspirated. 100 μl/well dmso was added, and then shaken on a Bellco plate shaker for 5 minutes, at 4.5 setting.
(§12) Plates were read in a Tecan Sunrize UV plate reader, at 560 nm. Settings: Read mode, Outside Normal 2 sec; Shake settle time 3 sec. Data is reported as % inhibition, calculated for individual plates using control values from that plate.

[1] = system: epithelial carcinoma A431 cell line; experiment: MTT Cell Proliferation Assay, A431 cells; format: cell-based; conditions: for MTT Assay IC50(A431/MDBK): ratio in parentheses: ratio MDBK IC50 / A431 IC50 (selectivity)
Text: as §1, §2, §3, §4, §5, §6, §7, §8, §9, §10, §11, §12

[2] = second value of cell, read-out: MTT Assay IC50(A431/MDBK): MDBK
[3] = Homo sapiens, A-431, A431 cells, first value of cell, read-out: MTT Assay IC50(A431/MDBK): A431

SMILES	ICW Avg (EGFR)	ICW 1 (EGFR)	ICW 2 (EGFR)	pIC50 (MDBK line; [2])	pIC50 [1, 3]	MTT Assay IC50(A431/MDBK): ratio in parentheses [1]	MTT Assay IC50(A431/MDBK): MDBK (MDBK line; second value of cell)	pIC50 (MDBK line; follow-up MTT, second value, read-out: MTT Follow-up: MDBK)	pIC50 ([1]; Homo sapiens, A-431, follow-up MTT, A431 cells, first value, read-out: MTT Follow-up: A431)	MTT Follow-up: ratio in parentheses ([1]; follow-up MTT, ratio MDBK/A431)	pIC50 ([1]; A431 cells, first value of cell, read-out: MTT Assay IC50(A431/MDBK): A431)
CCCCCc1c(C)nc(Nc2nc(C)c3ccc(C)cc3n2)[nH]c1=O [11730 + TFA]	38.91	47.15	30.67	5.00	4.84	0.69	–	–	–	–	–
COc1ccc2nc(Nc3nc(C)c(Cc4cccc(Cl)c4)c(=O)[nH]3)nc(C)c2c1 [11742 + TFA]	35.74	33.84	37.63	–	4.79	–	non-convergent	–	–	–	–
COc1ccccc1-c1cc(=O)[nH]c(Nc2nc(C)c3cc(C)c(C)cc3n2)n1 [11746 + TFA]	25.68	29.51	21.86	4.84	4.47	0.43	–	–	–	–	–
Cc1cccc(Cc2c(C)nc(Nc3nc(C)c4cccc(C)c4n3)[nH]c2=O)c1 [11754 + TFA]	29.97	34.09	25.85	5.12	5.25	1.35	–	–	–	–	–
O=c1cc(C(F)(F)F)[nH]c(Nc2nc(-c3ccccc3)c3cc(Cl)ccc3n2)n1 [11759 + TFA]	32.41	38.43	26.39	5.13	4.85	0.52	–	–	–	–	–
CCc1ccc2c(C)nc(Nc3nc(C)c(CCC(C)C)c(=O)[nH]3)nc2c1 [11771 + TFA]	46.95	51.58	42.32	4.38	4.74	2.32	–	–	–	–	–
COc1cccc2c(C)nc(Nc3nc(C)cc(=O)[nH]3)nc12 [11772 + TFA]	77.09	80.68	73.50	5.04	5.01	0.93	–	–	–	–	–
CCCc1c(C)nc(Nc2nc(C)c3cccc(OC)c3n2)[nH]c1=O [11773 + TFA]	33.52	43.74	23.30	4.68	4.40	0.53	–	–	–	–	–
Cc1ccc2c(C)nc(Nc3nc(CCC(C)C)cc(=O)[nH]3)nc2c1 [11783 + TFA]	60.19	66.95	53.44	4.82	4.74	0.82	–	–	–	–	–
Cc1ccc2nc(Nc3nc(-c4ccccc4C)cc(=O)[nH]3)nc(C)c2c1 [11785 + TFA]	35.54	41.06	30.01	5.04	4.99	0.88	–	4.59	4.61	1.04	–
Cc1ccc2nc(Nc3nc(CCC(C)C)cc(=O)[nH]3)nc(C)c2c1 [11795 + TFA]	33.52	35.23	31.81	4.89	4.57	0.48	–	–	–	–	–
COc1ccc(-c2cc(=O)[nH]c(Nc3nc(C)c4ccc(C)cc4n3)n2)cc1OC [11800 + TFA]	33.14	34.26	32.02	5.23	5.17	0.87	–	–	–	–	–
CC1(C)CC(=O)c2cnc(Nc3nc(-c4ccccc4)c4cc(Cl)ccc4n3)nc2C1 [11807 + TFA]	25.37	30.73	20.02	4.75	5.27	3.35	–	–	–	–	–
CCc1c(C)[nH]c(Nc2nc(C)c3cc(C)c(C)cc3n2)nc1=O [11809 + TFA]	32.72	31.42	34.02	4.96	4.41	0.28	–	–	–	–	–
Cc1ccc2nc(Nc3nc(C)cc(C(F)(F)F)n3)nc(C)c2c1 [11816 + TFA]	26.67	39.76	13.58	4.55	4.85	1.99	–	–	–	–	–
Cc1ccc2nc(Nc3nc(=O)cc(CSc4ccc(Cl)cc4)[nH]3)nc(C)c2c1 [11826 + TFA]	37.16	40.52	33.80	4.36	4.31	0.88	–	–	–	–	–
CCCCCC1C(=O)N=C(Nc2nc(C)c3ccc(CC)cc3n2)N=C1C (stereo not shown) [12214 + TFA]	34.91	42.29	27.52	4.34	4.49	1.40	–	–	–	–	–
CCCCCc1c(C)nc(Nc2nc(C)c3cc(CC)ccc3n2)[nH]c1=O [12226 + TFA]	38.74	42.24	35.23	4.31	4.37	1.15	–	–	–	–	–
Cc1nc(Nc2nc3c(c(-c4ccccc4)n2)CCCC3)nc2c(C)cccc12 [12229 + TFA]	25.97	16.57	35.37	4.68	4.72	1.08	–	–	–	–	–
CCCCc1c(C)nc(Nc2nc(C)c3ccccc3n2)[nH]c1=O [12603 + TFA]	38.61	48.06	29.15	5.00	–	0.62	–	–	–	–	4.79
Cc1ccc(-c2cc(=O)[nH]c(Nc3nc(C)c4ccc(C)cc4n3)n2)cc1 [12604 + TFA]	50.98	55.87	46.08	4.52	4.71	1.55	–	–	–	–	–
C=CCc1c(C)nc(Nc2nc(C)c3cccc(C)c3n2)[nH]c1=O [12607 + TFA]	32.62	38.40	26.85	4.93	4.78	0.71	–	–	–	–	–
CCOc1ccc2nc(Nc3nc(=O)cc(-c4ccccc4)[nH]3)nc(C)c2c1 [12608 + TFA]	42.36	46.64	38.07	4.77	4.37	–	–	–	–	–	–
C=CCc1c(C)nc(Nc2nc(C)c3ccccc3n2)[nH]c1=O [12610 + TFA]	31.33	41.25	21.42	4.71	4.30	0.39	–	–	–	–	–
Cc1nc(Nc2nc(C)c3cccc(C)c3n2)[nH]c(=O)c1Cc1ccccc1 [12611 + TFA]	45.72	52.69	38.76	5.27	5.27	1.00	–	–	–	–	–
